From PubChem BioAssay (NCI)
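Briefly, cells in 96-well plates were exposed to five compound concentrations for 48 h, and endpoints were estimated by linear interpolation. TGI denotes the concentration required for complete inhibition of growth.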

What was measured:
Test in all cases: NCI-60 cell line screen, 48 h
U251 CNS = test system: U251 CNS
HL-60(TB) leukemia = test system: HL-60(TB) leukemia
HOP-62 NSCLC = test system: HOP-62 NSCLC
SW-620 colon = test system: SW-620 colon
RXF-631 renal = test system: RXF-631 renal
SNB-78 CNS = test system: SNB-78 CNS
SK-MEL-28 melanoma = test system: SK-MEL-28 melanoma
HOP-18 NSCLC = test system: HOP-18 NSCLC
UACC-257 melanoma = test system: UACC-257 melanoma
SN12C renal = test system: SN12C renal
LOX IMVI melanoma = test system: LOX IMVI melanoma
SF-295 CNS = test system: SF-295 CNS
MALME-3M melanoma = test system: MALME-3M melanoma
HOP-92 NSCLC = test system: HOP-92 NSCLC
NCI-H23 lung = test system: NCI-H23 lung
SR leukemia = test system: SR leukemia
NCI-H226 lung = test system: NCI-H226 lung
HCC-2998 colon = test system: HCC-2998 colon
LXFL 529 NSCLC = test system: LXFL 529 NSCLC
ACHN renal = test system: ACHN renal
XF 498 CNS = test system: XF 498 CNS
K-562 leukemia = test system: K-562 leukemia
HT29 colon = test system: HT29 colon
OVCAR-3 ovarian = test system: OVCAR-3 ovarian
MOLT-4 leukemia = test system: MOLT-4 leukemia
SNB-19 CNS = test system: SNB-19 CNS
RXF 393 renal = test system: RXF 393 renal
DMS 273 small cell lung = test system: DMS 273 small cell lung
KM12 colon = test system: KM12 colon
SNB-75 CNS = test system: SNB-75 CNS
IGROV1 ovarian = test system: IGROV1 ovarian
SF-539 CNS = test system: SF-539 CNS
DLD-1 colon = test system: DLD-1 colon
786-0 renal = test system: 786-0 renal
DMS 114 small cell lung = test system: DMS 114 small cell lung
A549 NSCLC = test system: A549 NSCLC
KM20L2 colon = test system: KM20L2 colon
OVCAR-5 ovarian = test system: OVCAR-5 ovarian
OVCAR-4 ovarian = test system: OVCAR-4 ovarian
SK-MEL-5 melanoma = test system: SK-MEL-5 melanoma
CAKI-1 renal = test system: CAKI-1 renal
EKVX NSCLC = test system: EKVX NSCLC
TK-10 renal = test system: TK-10 renal
UACC-62 melanoma = test system: UACC-62 melanoma
M14 melanoma = test system: M14 melanoma
SF-268 CNS = test system: SF-268 CNS
OVCAR-8 ovarian = test system: OVCAR-8 ovarian
CCRF-CEM leukemia = test system: CCRF-CEM leukemia
SK-OV-3 ovarian = test system: SK-OV-3 ovarian
NCI-H522 lung = test system: NCI-H522 lung
HCT-116 colon = test system: HCT-116 colon
A498 renal = test system: A498 renal
M19-MEL melanoma = test system: M19-MEL melanoma
COLO 205 colon = test system: COLO 205 colon
UO-31 renal = test system: UO-31 renal

Measured: TGI

COC(=O)c1cc(Br)c(Br)n1C
> 100 µM: U251 CNS | HL-60(TB) leukemia | HOP-62 NSCLC | SW-620 colon | RXF-631 renal | SNB-78 CNS | SK-MEL-28 melanoma | HOP-18 NSCLC | UACC-257 melanoma | SN12C renal | LOX IMVI melanoma | SF-295 CNS | MALME-3M melanoma | HOP-92 NSCLC | NCI-H23 lung | SR leukemia | NCI-H226 lung | HCC-2998 colon | LXFL 529 NSCLC | ACHN renal | XF 498 CNS | K-562 leukemia | HT29 colon | OVCAR-3 ovarian | MOLT-4 leukemia | SNB-19 CNS | RXF 393 renal | DMS 273 small cell lung | KM12 colon | SNB-75 CNS | IGROV1 ovarian | SF-539 CNS | DLD-1 colon | 786-0 renal | DMS 114 small cell lung | A549 NSCLC | KM20L2 colon | OVCAR-5 ovarian | OVCAR-4 ovarian | SK-MEL-5 melanoma | CAKI-1 renal | EKVX NSCLC | TK-10 renal | UACC-62 melanoma | M14 melanoma | SF-268 CNS | OVCAR-8 ovarian | CCRF-CEM leukemia | SK-OV-3 ovarian | NCI-H522 lung | HCT-116 colon | A498 renal | M19-MEL melanoma | COLO 205 colon | UO-31 renal
